Patent US10772896B2, “Process for preparing a dry powder formulation comprising an anticholinergic, a corticosteroid and a beta-adrenergic” (CHIESI FARMACEUTICI S.P.A., priority 2015, dated 2020)

Assays:
[1] = Uniformity of distribution of the active ingredients in the blend (10 samples, HPLC); assay type: physicochemical; settings: dry powder formulation of Example 2; mean value ± RSD
Method: The uniformity of distribution of the active ingredients was evaluated by withdrawing 10 samples from different parts of the blend and evaluated by HPLC

[2] = Aerosol performance by Next Generation Impactor (NGI); assay type: physicochemical
Description: After aerosolization of 3 doses from the inhaler device, the NGI apparatus was disassembled and the amounts of drug deposited in the stages were recovered by washing with a solvent mixture and then quantified by High-Performance Liquid Chromatography (HPLC).

[3] = Batch CY (Cyclomix), reference powder formulation of WO 2015/004243
[4] = Batch MF (mechano-fusion), reference powder formulation of WO 2015/004243
[5] = dry powder formulation of Example 2, DPI of WO 2004/012801
[6] = dry powder formulation of Example 2, DPI of WO 2004/012801, 2.0-5.0 micron
[7] = dry powder formulation of Example 2, DPI of WO 2004/012801, particle size <= 5.0 micron
[8] = dry powder formulation of Example 2, multidose DPI of WO 2004/012801
[9] = pMDI HFA solution formulation of WO 2011/076843 (reference Example 4)

CCC(=O)OCC(=O)[C@@]1(OC(=O)CC)[C@@H](C)C[C@H]2[C@@H]3CCC4=CC(=O)C=C[C@]4(C)[C@@]3(Cl)[C@@H](O)C[C@@]21C [BDP, Beclometasone dipropionate]
Uniformity of distribution [1]: 100.5 (±1.8)
Delivered Dose [2, 3]: 90.6 µg
Extrafine Particle Fraction < 2 μm [2, 3]: 53.9%
Extrafine Particle Mass < 2 μm [2, 3]: 48.8 µg
Fine Particle Fraction [2, 3]: 71.2%
Fine Particle Mass [2, 3]: 64.5 µg
MMAD [2, 3]: 1.1 μm
Mid Fine Particle Fraction [2, 3]: 17.3%
Mid Fine Particle Mass [2, 3]: 15.7 µg
Delivered Dose [2, 4]: 95.7 µg
Extrafine Particle Fraction < 2 μm [2, 4]: 52.3%
Extrafine Particle Mass < 2 μm [2, 4]: 50.0 µg
Fine Particle Fraction [2, 4]: 69.9%
Fine Particle Mass [2, 4]: 66.9 µg
MMAD [2, 4]: 1.1 μm
Mid Fine Particle Fraction [2, 4]: 17.6%
Mid Fine Particle Mass [2, 4]: 16.9 µg
Extrafine Particle Fraction < 1 μm [2, 5]: 13.9%
Extrafine Particle Fraction < 2 μm [2, 5]: 32.1%
Extrafine Particle Mass < 1 μm [2, 5]: 12.4 µg
Extrafine Particle Mass < 2 μm [2, 5]: 28.5 µg
Fine Particle Fraction [2, 5]: 49.3%
MMAD [2, 5]: 1.6 μm
Mid Fine Particle Fraction [2, 6]: 17.1%
Mid Fine Particle Mass [2, 6]: 15.2 µg
Fine Particle Mass [2, 7]: 43.6 µg
Delivered Dose [2, 8]: 88.5 µg
Delivered Dose [2, 9]: 87.8 µg
Extrafine Particle Fraction < 2 μm [2, 9]: 40.9%
Extrafine Particle Mass < 2 μm [2, 9]: 35.9 µg
Fine Particle Fraction [2, 9]: 46.0%
Fine Particle Mass [2, 9]: 40.4 µg
MMAD [2, 9]: 1.0 μm
Mid Fine Particle Fraction [2, 9]: 5.2%
Mid Fine Particle Mass [2, 9]: 4.5 µg

C[N+]1(C)CCC(OC(=O)C(O)(c2ccccc2)C2CCCC2)C1 (stereo not drawn) [GB, Glycopyrronium bromide]
Delivered Dose [2, 3]: 11.6 µg
Extrafine Particle Fraction < 2 μm [2, 3]: 34.9%
Extrafine Particle Mass < 2 μm [2, 3]: 4.0 µg
Fine Particle Fraction [2, 3]: 57.2%
Fine Particle Mass [2, 3]: 6.6 µg
MMAD [2, 3]: 1.8 μm
Mid Fine Particle Fraction [2, 3]: 22.3%
Mid Fine Particle Mass [2, 3]: 2.6 µg
Delivered Dose [2, 4]: 11.9 µg
Extrafine Particle Fraction < 2 μm [2, 4]: 33.2%
Extrafine Particle Mass < 2 μm [2, 4]: 4.0 µg
Fine Particle Fraction [2, 4]: 53.8%
Fine Particle Mass [2, 4]: 6.4 µg
MMAD [2, 4]: 1.4 μm
Mid Fine Particle Fraction [2, 4]: 20.6%
Mid Fine Particle Mass [2, 4]: 2.5 µg
Extrafine Particle Fraction < 1 μm [2, 5]: 9.8%
Extrafine Particle Fraction < 2 μm [2, 5]: 26.4%
Extrafine Particle Mass < 1 μm [2, 5]: 1.1 µg
Extrafine Particle Mass < 2 μm [2, 5]: 2.9 µg
Fine Particle Fraction [2, 5]: 48.1%
MMAD [2, 5]: 1.9 μm
Mid Fine Particle Fraction [2, 6]: 21.6%
Mid Fine Particle Mass [2, 6]: 2.4 µg
Fine Particle Mass [2, 7]: 5.4 µg
Delivered Dose [2, 8]: 11.1 µg
Delivered Dose [2, 9]: 10.6 µg
Extrafine Particle Fraction < 2 μm [2, 9]: 40.2%
Extrafine Particle Mass < 2 μm [2, 9]: 4.2 µg
Fine Particle Fraction [2, 9]: 45.1%
Fine Particle Mass [2, 9]: 4.8 µg
MMAD [2, 9]: 1.0 μm
Mid Fine Particle Fraction [2, 9]: 5.0%
Mid Fine Particle Mass [2, 9]: 0.5 µg
